Data published in patent publication US20260028364A1, “CATIONIC CHROMENONES AND THEIR USE IN ONCOLOGY” (FLORATEK PHARMA S.A., priority 2022, published 2026).

Columns and labels:
Type in all cases: cell-based
MCF-7 = assay: CellTiter-Glo cell viability, MCF-7; conditions: Homo sapiens, MCF7; MCF-7 cells, 72 h with compound
Method: (§1) Antitumor activity against a panel of cancer cell lines Antitumor activity of the compounds was assessed by using the CellTiter-Glow® Luminescent Cell Viability assay (Promega #G7572) according to the manufacturer's instructions. The compounds were tested at 5 or 6 concentrations in 1:2 dilution increments (highest concentration 10 µM) in triplicate well conditions.
(§2) Tumor cells were grown at 37° C. in a humidified atmosphere with 5% CO2 in RPMI 1640 or DMEM medium, supplemented with 10% (v/v) fetal calf serum and 50 μg/ml gentamicin for up to 20 passages, and were passaged once or twice weekly. Cells were harvested using TrypLE or PBS buffer containing 1 mM EDTA, and the percentage of viable cells is determined using a cell counter.
(§3) Cells were harvested from exponential phase cultures, counted and plated in 96 well flat-bottom microtiter plates at a cell density depending on the cell line's growth rate (4,000-20,000 cells/well depending on the cell line's growth rate) in RPMI 1640 or DMEM medium supplemented with 10% (v/v) fetal calf serum and 50 μg/ml gentamicin (140 μl/well). Cultures were incubated at 37° C. and 5% CO2 in a humidified atmosphere. After 24 h, 10 μl of test compounds or control medium are added, and left on the cells for another 72 h. Compounds were serially diluted in DMSO, transferred in cell culture medium, and added to the assay plates. The DMSO concentration was kept constant at <0.2% v/v across the assay plate. Viability of cells was quantified by the CellTiter-Glow® Luminescent Cell Viability assay (Promega #G7572). Luminescence was measured with the microplate luminometer (En Vision Perkin Elmer).
(§4) Sigmoidal concentration-response curves were fitted to the data points (test-versus-control, T/C values) obtained for each tumor model using Graph Pad prism 5.02 software. IC50 values are reported as absolute IC50 values, being the concentration of test compound at the intersection of the concentration-response curves with T/C=50%.

NCI-H1299 = assay: CellTiter-Glo cell viability, NCI-H1299; conditions: Homo sapiens, NCI-H1299; H1299 cells, 72 h with compound
Method: as §1, §2, §3, §4

HCC-15 = assay: CellTiter-Glo cell viability, HCC-15; conditions: HCC-15 cells, 72 h with compound
Method: as §1, §2, §3, §4

Raji = assay: CellTiter-Glo cell viability, Raji; conditions: Homo sapiens; Raji cells, 72 h with compound
Method: as §1, §2
as §3, with “After 24 h, 10 μl of test compounds or control medium are added, and left on the cells for another 72 h. Compounds were serially diluted in DMSO, transferred in cell culture medium, and added to the assay plates. The DMSO concentration was kept constant at <0.2% v/v across the assay plate.” left out, “Elmer). […]” for “Elmer).”

MIA-PaCa-2 = assay: CellTiter-Glo cell viability, MIA-PaCa-2; conditions: MIA-PaCa-2 cells, 72 h with compound
Method: as §1, §2, §3, §4

A-673 = assay: CellTiter-Glo cell viability, A-673; conditions: Homo sapiens, A673; A-673 cells, 72 h with compound
Method: as §1, §2, §3, §4

SK-Mel-5 = assay: CellTiter-Glo cell viability, SK-Mel-5; conditions: SK-Mel-5 cells, 72 h with compound
Method: as §1, §2, §3, §4

U87MG = assay: CellTiter-Glo cell viability, U87MG; conditions: Homo sapiens, U-87 MG; U87MG cells, 72 h with compound
Method: as §1, §2, §3, §4

A375 = assay: CellTiter-Glo cell viability, A375; conditions: A375 cells, 72 h with compound
Method: as §1, §2, §3, §4

Kelly = assay: CellTiter-Glo cell viability, Kelly; conditions: Kelly cells, 72 h with compound
Method: as §1, §2, §3, §4

LoVo = assay: CellTiter-Glo cell viability, LoVo; conditions: LoVo cells, 72 h with compound
Method: as §1, §2
as §3, with “After 24 h, 10 μl of test compounds or control medium are added, and left on the cells for another 72 h. Compounds were serially diluted in DMSO, transferred in cell culture medium, and added to the assay plates. The DMSO concentration was kept constant at <0.2% v/v across the assay plate.” left out, “Elmer). […]” for “Elmer).”

SK-N-SH = assay: CellTiter-Glo cell viability, SK-N-SH; conditions: SK-N-SH cells, 72 h with compound
Method: as §1, §2, §3, §4

H69 = assay: CellTiter-Glo cell viability, H69; conditions: H69 cells, 72 h with compound
Method: as §1, §2, §3, §4

BxPC-3 = assay: CellTiter-Glo cell viability, BxPC-3; conditions: BxPC-3 cells, 72 h with compound
Method: as §1, §2, §3, §4

22Rv1 = assay: CellTiter-Glo cell viability, 22Rv1; conditions: 22Rv1 cells, 72 h with compound
Method: as §1, §2, §3, §4

A2058 = assay: CellTiter-Glo cell viability, A2058; conditions: A2058 cells, 72 h with compound
Method: as §1, §2, §3, §4

MDA-MB-468 = assay: CellTiter-Glo cell viability, MDA-MB-468; conditions: MDA-MB-468 cells, 72 h with compound
Method: as §1, §2
as §3, with “After 24 h, 10 μl of test compounds or control medium are added, and left on the cells for another 72 h. Compounds were serially diluted in DMSO, transferred in cell culture medium, and added to the assay plates. The DMSO concentration was kept constant at <0.2% v/v across the assay plate.” left out, “Elmer). […]” for “Elmer).”

H460 = assay: CellTiter-Glo cell viability, H460; conditions: H460 cells, 72 h with compound
Method: as §1, §2
as §3, with “After 24 h, 10 μl of test compounds or control medium are added, and left on the cells for another 72 h. Compounds were serially diluted in DMSO, transferred in cell culture medium, and added to the assay plates. The DMSO concentration was kept constant at <0.2% v/v across the assay plate.” left out, “Elmer). […]” for “Elmer).”

LNCaP = assay: CellTiter-Glo cell viability, LNCaP; conditions: LNCaP cells, 72 h with compound
Method: as §1, §2
as §3, with “After 24 h, 10 μl of test compounds or control medium are added, and left on the cells for another 72 h. Compounds were serially diluted in DMSO, transferred in cell culture medium, and added to the assay plates. The DMSO concentration was kept constant at <0.2% v/v across the assay plate.” left out, “Elmer). […]” for “Elmer).”

NFKB = assay: SelectScreen CellSensor pathway inhibition, NFKB; conditions: NFKB-bla Jurkat, stimulus TNF-alpha
Method: Inhibition of various cellular pathways known to be involved in malignancy was tested using the SelectScreen Cell-based Pathway Profiling GeneBLAzer™ cell signaling pathway specific CellSensor™ cell lines ((Thermo Fisher). The assay is based on a beta-lactamase reporter activity which is modulated and can be measured quantitatively and selectively with the LiveBLAzer™-FRET B/G Loading Substrate. SelectScreen Cell-Based Pathway Profiling Service uses XLfit from IDBS. The dose response curve is curve fit to model number 205 (sigmoidal dose-response model). Custom logic was built by Thermo Fisher for the data analysis tool to address the different compound characteristics that can be observed with functional assays.
NFKB—NFKB-bla Jurkat—Inhibitor Screen, Activated by TNF-Alpha
NFKB-bla Jurkat cells are thawed and resuspended in Assay Media (DMEM, 10% dialyzed FBS, 25 mM HEPES pH 7.3, 0.1 mM NEAA, 100 U/mL/100 μg/mL Pen/Strep) to a concentration of 625,000 cells/mL. […] 4 μL of 10×control activator TNF-alpha at the pre-determined EC80 concentration is added to wells containing the control inhibitor or compounds.
The plate is incubated for 5 hours at 37° C./5% CO2 in a humidified incubator. […] The plate is read on a fluorescence plate reader.

Row | IC50 (NCI-H1299) [µM] | IC50 (HCC-15; HCC15) [µM] | IC50 (MIA-PaCa-2; Homo sapiens) [µM] | IC50 (A375; Homo sapiens, A-375) [µM] | IC50 (HCC-15) [µM] | IC50 (MIA-PaCa-2) [µM] | IC50 (SK-Mel-5) [µM] | IC50 (A375) [µM] | IC50 (SK-N-SH) [µM] | IC50 (BxPC-3) [µM] | IC50 (22Rv1) [µM] | IC50 (MDA-MB-468) [µM] | IC50 (H460) [µM] | IC50 (LNCaP) [µM] | SMILES | IC50 (Kelly) [µM] | IC50 (H69) [µM] | IC50 (A2058) [µM] | other results
1 | 1.4 | 3.7 | 1.2 | 1.5 | – | – | – | – | – | – | – | – | – | – | COc1c(O)ccc2c(=O)c(-c3ccc(CCCC[P+](c4ccccc4)(c4ccccc4)c4ccccc4)cc3)coc12 [SND530, (4-(4-(7-Hydroxy-8-methoxy-4-oxo-4H-chromen-3-yl)phenyl)butyl)triphenylphosphonium bromide] | – | – | – | IC50 (MCF-7): 1 µM; IC50 (Raji): 0.14 µM; IC50 (A-673): 0.5 µM; IC50 (SK-Mel-5; Homo sapiens): 1.1 µM; IC50 (U87MG): 1.9 µM
2 | – | – | – | – | 1.47 | 0.43 | 0.87 | 0.76 | 2.75 | 1.46 | 0.8 | 0.51 | 1.78 | 0.69 | COc1ccc2c(=O)c(-c3cccc(CC[P+](c4ccccc4)(c4ccccc4)c4ccccc4)c3)coc2c1OC [SND542] | 1.71 | 0.21 | 0.69 | IC50 (LoVo): 4.83 µM
3 | – | – | – | – | 1.34 | 0.63 | 0.97 | 1.51 | 3.87 | 1.81 | 0.92 | 0.56 | 2 | 0.68 | COc1ccc2c(=O)c(-c3cccc(C[P+](c4ccccc4)(c4ccccc4)c4ccccc4)c3)coc2c1OC [SND543] | 1.44 | 0.97 | 0.98 | –
4 | 1.3 | 1.3 | 4.3 | 0.92 | – | – | – | – | – | – | – | – | – | – | COc1ccc2c(=O)c(-c3ccc(CC[P+](c4ccccc4)(c4ccccc4)c4ccccc4)cc3)coc2c1OC [SND550] | – | – | – | IC50 (SK-N-SH; Homo sapiens): 3.69 µM; IC50 (H69; Homo sapiens, NCI-H69): 0.68 µM; IC50 (22Rv1; Homo sapiens): 0.75 µM
5 | – | – | – | – | – | – | – | – | – | – | – | – | – | – | CC1=C(CO)C(=O)O[C@@H]([C@@H](C)[C@H]2CC[C@H]3[C@@H]4C[C@H]5O[C@]56[C@@H](O)C=CC(=O)[C@]6(C)[C@H]4CC[C@]23C)C1 [Withaferin A, reference compound] | – | – | – | IC50 (NFKB): 0.24 µM
